Settings in all cases: 10 mM Tris-HCl, pH 7.4
Assay [1] concerns DNA aptamer or structured DNA GGGACGACTAGTGCCTTCGCGTTGTTCGGGAATCCGGTTCCGTCGTCCC
Assay [2] concerns DNA aptamer or structured DNA GGGACGACGGATTGCGCTTGCTAACGCCGTGTAGAGTCGTCGTCCC
Assay [3] concerns DNA aptamer or structured DNA GGGACGACGGGGATTCGGTTCGTCATTTGGCAGTGCCTCGTACGTCGTCCC
In assay [4] the test system is DNA aptamer or structured DNA GGGACGACCAGAATGGAAGCATTGGTTGCCGCAGGGTGCCGCAGTCGTCCC
Assay [5] deals with DNA aptamer or structured DNA GGGACGACGGGGATTCGCGGATTCATAGAAAAGGGCTCGTCCGTCGTCCC
Assay [6] relates to DNA aptamer or structured DNA GGGACGACGGGATGTGGTGTCAGTCATGATGGGATCAAGTCGTCCC
For binding call in this document: call rule not given here.

For `C=C[C@H]1CN2CC[C@@H]1C[C@H]2[C@H](O)c1ccnc2ccc(OC)cc12`, the binding call in assay [1] is on record as “no binding”.

Consider `CN(C)CCOC(c1ccccc1)c1ccccc1`, for which the binding call in assay [2] and in assay [1] was “no binding” each time.

As to `CCN(CC)CCOC(=O)c1ccc(N)cc1`, the binding call in assay [3], in assay [4] and in assay [5] was “no binding” each time.

Take `NCCc1c[nH]c2ccc(O)cc12`: the binding call in assay [1] and in assay [5] was “no binding” throughout.

On to `Cn1c(=O)c2c(ncn2C)n(C)c1=O`, for which the binding call in assay [2] is on record as “no binding”.

With `CN1C(=O)CN=C(c2ccccc2)c2cc(Cl)ccc21`, in assay [2], the binding call was “no binding”.

Turning to `CCN(CC)CC(=O)Nc1c(C)cccc1C`, the binding call in assay [3] is reported as “no binding”.

As for `CC(=O)Nc1ccc(O)cc1`, the binding call in assay [6] was “no binding”.

Regarding `NCC(O)c1ccc(O)c(O)c1` (stereo not given), the binding call in assay [1] and in assay [3] was “no binding” in each case.

Turning to `CC(N)Cc1ccccc1` (stereo not given), the binding call in assay [4] was “no binding”.

`COC(=O)[C@@H]1C2CCC(C[C@@H]1OC(=O)c1ccccc1)N2C` (stereo not given in full): the binding call in assay [4] is recorded as “no binding”.

For the compound `NCCc1ccc(O)c(O)c1`, the binding call in assay [3] and in assay [5] was “no binding” each time.

On to `COc1ccc2c3c1O[C@H]1C(=O)CC[C@@]4(O)[C@@H](C2)N(C)CC[C@]314`, for which the Kd (as a rule, a measure of binding affinity in units of concentration) was 3650 nM in assay [6] and 2160 nM in assay [2]. Moreover, the binding call in assay [4] is reported as “no binding”.

For the compound `CN1CC[C@]23c4c5ccc(O)c4O[C@H]2[C@@H](O)C=C[C@H]3[C@H]1C5`, the values for the Kd in assay [1], in assay [3] and in assay [5] were 19500 nM, 1500 nM and 2500 nM, respectively.

As to `CN[C@@H](C)Cc1ccccc1`, the binding call in assay [4] is recorded as “no binding”.

For the origin of these results see the AptaBench aptamer set (doi:10.1093/nar/gkaf219).
